Values of other authors, collected in patent US8691803B2, “Process for the preparation of antibiotic compounds” (Savior Lifetec Corporation, priority 2011, dated 2014).

Settings: storage; must be stored at a low temperature

- Temperature stability: unstable above −20 °C
Structure (SMILES): C[C@@H](O)[C@H]1C(=O)N2C(C(=O)O)=C(S[C@@H]3CN[C@H](C(=O)Nc4cccc(C(=O)O)c4)C3)[C@H](C)[C@H]12 [ertapenem]
